Experimental data taken from ChEMBL document CHEMBL1201862, “PubChem BioAssay data set” (2004).
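In this assay, cells in 96-well plates receive the compound at five concentrations for 48 hours. Endpoints are linearly interpolated between the surrounding concentrations. Abbreviation: GI50, concentration required for 50% inhibition of growth.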 Calls of active or inactive are those of the source. No stated cut-off is given here; in the data, active = GI50 up to about 1.1 µM and inactive = higher. Non-standard residues stand in square brackets, D forms with d. Residues, ends and D or L forms follow the SMILES beside them. *: point of attachment. Ac5c = NC1(C(=O)O)CCCC1; Boc = CC(C)(C)OC(=O)*; tBu = CC(C)(C)*

Key:
Assay in all cases: growth of human tumour cells (NCI), 48 h
TK-10 = tested on: TK-10
BT-549 = tested on: BT-549
SN12C = tested on: SN12C
HL-60 = tested on: HL-60
HOP-62 = tested on: HOP-62
SF-295 = tested on: SF-295
SK-OV-3 = tested on: SK-OV-3
NCI-H522 = tested on: NCI-H522
NCI-H460 = tested on: NCI-H460
SNB-75 = tested on: SNB-75
HT-29 = tested on: HT-29
SK-MEL-5 = tested on: SK-MEL-5
SK-MEL-2 = tested on: SK-MEL-2
OVCAR-5 = tested on: OVCAR-5
CCRF-CEM = tested on: CCRF-CEM
Malme-3M = tested on: Malme-3M
NCI-H226 = tested on: NCI-H226
A498 = tested on: A498
NCI-H23 = tested on: NCI-H23
DU-145 = tested on: DU-145

| SMILES | GI50 (TK-10) | GI50 (BT-549) | GI50 (SN12C) | GI50 (HL-60) | GI50 (HOP-62) | GI50 (SF-295) | GI50 (SK-OV-3) | GI50 (NCI-H522) | GI50 (NCI-H460) | GI50 (SNB-75) | GI50 (HT-29) | GI50 (SK-MEL-5) | GI50 (SK-MEL-2) | GI50 (OVCAR-5) | GI50 (CCRF-CEM) | GI50 (Malme-3M) | GI50 (NCI-H226) | GI50 (A498) | GI50 (NCI-H23) | GI50 (DU-145) |
| --- | --- | --- | --- | --- | --- | --- | --- | --- | --- | --- | --- | --- | --- | --- | --- | --- | --- | --- | --- | --- |
| O=C1c2ccsc2C(=O)c2sc(CO)cc21 | 5.93 µM (inactive) | 0.0182 µM (active) | 0.0386 µM (active) | 0.656 µM (active) | 0.184 µM (active) | 0.628 µM (active) | 1.11 µM (active) | 0.106 µM (active) | 1.47 µM (inactive) | 0.0564 µM (active) | 0.219 µM (active) | < 0.0118 µM (active) | 0.0929 µM (active) | 1.43 µM (inactive) | 0.207 µM (active) | 0.61 µM (active) | 0.243 µM (active) | 0.331 µM (active) | 0.0322 µM (active) |  |
| CC(=O)OI1NC(=O)c2ccccc21 | > 100 µM (inactive) |  | > 100 µM (inactive) | > 100 µM (inactive) | > 100 µM (inactive) | > 100 µM (inactive) | > 100 µM (inactive) | 80.2 µM (inactive) |  | > 100 µM (inactive) | > 100 µM (inactive) | > 100 µM (inactive) | > 100 µM (inactive) | > 100 µM (inactive) | 76.7 µM (inactive) | > 100 µM (inactive) | > 100 µM (inactive) | > 100 µM (inactive) | > 100 µM (inactive) | > 100 µM (inactive) |
| O=C(O)C12CCC(CC1=O)C2 (stereo not drawn) | > 100 µM (inactive) | > 100 µM (inactive) | > 100 µM (inactive) | > 100 µM (inactive) | > 100 µM (inactive) | > 100 µM (inactive) | > 100 µM (inactive) | > 100 µM (inactive) | > 100 µM (inactive) | > 100 µM (inactive) | > 100 µM (inactive) | > 100 µM (inactive) | > 100 µM (inactive) | > 100 µM (inactive) | > 100 µM (inactive) | > 100 µM (inactive) | > 100 µM (inactive) |  | > 100 µM (inactive) |  |
| COC(=O)c1ccccc1/C=C1\Cc2cc(C)cc(C)c2C1=O | > 100 µM (inactive) |  | > 100 µM (inactive) | > 100 µM (inactive) | 37.2 µM (inactive) | > 100 µM (inactive) |  | 5.46 µM (inactive) | > 100 µM (inactive) | 72.4 µM (inactive) | > 100 µM (inactive) | > 100 µM (inactive) | > 100 µM (inactive) | > 100 µM (inactive) | > 100 µM (inactive) | > 100 µM (inactive) | > 100 µM (inactive) | > 100 µM (inactive) | > 100 µM (inactive) | > 100 µM (inactive) |
| Cc1cc(S(=O)(=O)O)c(NC(=O)c2oc3cc(O)ccc3c(=O)c2C)cc1Cl | > 100 µM (inactive) | > 100 µM (inactive) | > 100 µM (inactive) |  | > 100 µM (inactive) | > 100 µM (inactive) | > 100 µM (inactive) | > 100 µM (inactive) | > 100 µM (inactive) | > 100 µM (inactive) | > 100 µM (inactive) | > 100 µM (inactive) | > 100 µM (inactive) | > 100 µM (inactive) |  | > 100 µM (inactive) | > 100 µM (inactive) |  | > 100 µM (inactive) |  |
| Cc1ccc([N+](=O)[O-])c2c(NCCNC(=O)Cn3ccnc3[N+](=O)[O-])ccnc12 | 88.3 µM (inactive) |  | 38.3 µM (inactive) | > 100 µM (inactive) | 20.7 µM (inactive) | 20.5 µM (inactive) | 21.6 µM (inactive) | 15.5 µM (inactive) | 28.2 µM (inactive) | > 100 µM (inactive) | 32.4 µM (inactive) | 17.8 µM (inactive) | 43.6 µM (inactive) | 35.5 µM (inactive) | > 100 µM (inactive) | 28.6 µM (inactive) | 26.2 µM (inactive) | 31.6 µM (inactive) | 54.2 µM (inactive) | 57.3 µM (inactive) |
| CN1CCN(c2ccc3[nH]c(-c4ccc5[nH]c(CCCc6ccc(N(CCCl)CCCl)cc6)nc5c4)nc3c2)CC1 | > 100 µM (inactive) |  | > 100 µM (inactive) | 62.8 µM (inactive) | > 100 µM (inactive) | > 100 µM (inactive) | > 100 µM (inactive) | > 100 µM (inactive) | > 100 µM (inactive) | > 100 µM (inactive) | 41.7 µM (inactive) | > 100 µM (inactive) | > 100 µM (inactive) | > 100 µM (inactive) | 75.3 µM (inactive) | > 100 µM (inactive) | > 100 µM (inactive) | > 100 µM (inactive) | > 100 µM (inactive) | > 100 µM (inactive) |
| N#CC(C#N)=c1c2ccccc2c(=C(C#N)C#N)c2ccccc12 |  | 23 µM (inactive) | 16.6 µM (inactive) | 19.8 µM (inactive) | 19.4 µM (inactive) |  | 25.1 µM (inactive) |  | 42.2 µM (inactive) | 18.1 µM (inactive) | 18.6 µM (inactive) | 16.7 µM (inactive) | 17.1 µM (inactive) | 20.9 µM (inactive) | 7.46 µM (inactive) |  | 17.7 µM (inactive) | 23.8 µM (inactive) | 19.6 µM (inactive) |  |
| COc1ccc(/C=C/c2cc(OC)cc(=O)o2)cc1 [YANGONIN] | 45.1 µM (inactive) |  | > 100 µM (inactive) | > 100 µM (inactive) | 40 µM (inactive) | 37.2 µM (inactive) | 91.4 µM (inactive) |  | > 100 µM (inactive) | 20 µM (inactive) | > 100 µM (inactive) | > 100 µM (inactive) | 72.1 µM (inactive) | > 100 µM (inactive) | > 100 µM (inactive) | > 100 µM (inactive) | > 100 µM (inactive) |  | 51.8 µM (inactive) | 95.9 µM (inactive) |
| CC(=O)OC1C[C@H]2C(OC(=O)c3ccccc3)C3C4(OC(C)=O)COC4C[C@H](OC(C)=O)[C@@]3(C)C(OC(C)=O)[C@H](OC(C)=O)C(=C1C)C2(C)C (stereo partly drawn) | 25.7 µM (inactive) |  | 51.2 µM (inactive) | 16.7 µM (inactive) | 40 µM (inactive) | 33.5 µM (inactive) | 34.1 µM (inactive) | 20.4 µM (inactive) | 35.5 µM (inactive) | 14.3 µM (inactive) | 49.3 µM (inactive) | 26.3 µM (inactive) | 33.3 µM (inactive) | > 100 µM (inactive) | 36.7 µM (inactive) | 71.8 µM (inactive) | 34.1 µM (inactive) | 24.4 µM (inactive) | 52.8 µM (inactive) |  |
| CCOC(=O)c1sc2c(c1OC(=O)c1ccc(Cl)cc1Cl)c(=O)n(-c1ccccc1)c(=S)n2-c1ccccc1 | 17 µM (inactive) |  | 4.22 µM (inactive) | 4.29 µM (inactive) | 10 µM (inactive) | 6.76 µM (inactive) | 5.42 µM (inactive) | 4.74 µM (inactive) | 5.24 µM (inactive) | 7.01 µM (inactive) | 8.89 µM (inactive) | 11.7 µM (inactive) | 3.97 µM (inactive) | 35.4 µM (inactive) | 3.27 µM (inactive) | 22.9 µM (inactive) | 6.73 µM (inactive) | 5.08 µM (inactive) | 4.91 µM (inactive) | 31.1 µM (inactive) |
| CC(OC(C)(C)C)C(NC(=O)C(CCCCNC(=O)OC(C)(C)C)NC(=O)C(Cc1c[nH]c2ccccc12)NC(=O)C(N)Cc1ccccc1)C(=O)NC(Cc1ccccc1)C(=O)NC1(C(=O)O)CCCC1 (stereo not drawn) (H-FWK(Boc)T(tBu)F[Ac5c]-OH; configuration not given here) | > 100 µM (inactive) |  | > 100 µM (inactive) |  | > 100 µM (inactive) | > 100 µM (inactive) | > 100 µM (inactive) | > 100 µM (inactive) | > 100 µM (inactive) | > 100 µM (inactive) | > 100 µM (inactive) | > 100 µM (inactive) | > 100 µM (inactive) | > 100 µM (inactive) | > 100 µM (inactive) | > 100 µM (inactive) | > 100 µM (inactive) | > 100 µM (inactive) | > 100 µM (inactive) | > 100 µM (inactive) |
| CC(C)N(C(=O)C12C3C4C1C1C4(C#N)C3C12C(=O)O)C(C)C (stereo not drawn) | > 100 µM (inactive) |  | > 100 µM (inactive) | > 45.5 µM (inactive) | > 100 µM (inactive) | > 100 µM (inactive) | > 100 µM (inactive) | > 69.3 µM (inactive) | > 67.3 µM (inactive) | > 100 µM (inactive) | > 100 µM (inactive) | > 100 µM (inactive) | > 100 µM (inactive) | > 100 µM (inactive) | > 48.4 µM (inactive) | > 100 µM (inactive) | > 100 µM (inactive) | > 100 µM (inactive) | > 100 µM (inactive) |  |
| C#CCSc1nc(N)c2ncn(C3OC(COP(=O)(O)O)C(O)C3O)c2n1 (stereo not drawn) | > 239 µM (inactive) |  | > 239 µM (inactive) | > 239 µM (inactive) | > 239 µM (inactive) | > 239 µM (inactive) | > 239 µM (inactive) | > 239 µM (inactive) | > 239 µM (inactive) | > 239 µM (inactive) | > 239 µM (inactive) | > 239 µM (inactive) | > 239 µM (inactive) | > 239 µM (inactive) | > 239 µM (inactive) | > 239 µM (inactive) | > 239 µM (inactive) | > 239 µM (inactive) | > 239 µM (inactive) |  |
| CCCCCCCCCCCCCCCC(=O)OCC(O)C1OC(=O)C(O)=C1O (stereo not drawn) |  |  | 29.9 µM (inactive) | 29.5 µM (inactive) | 31.4 µM (inactive) | 20 µM (inactive) | 35.6 µM (inactive) | 34.4 µM (inactive) | > 100 µM (inactive) | 16.1 µM (inactive) | 12.8 µM (inactive) | > 100 µM (inactive) | 34.1 µM (inactive) | 33.9 µM (inactive) | 23.7 µM (inactive) | > 100 µM (inactive) | 22.9 µM (inactive) | 35.7 µM (inactive) | 3.21 µM (inactive) | > 100 µM (inactive) |
